Target: ATR kinase (full-length ATR) (Homo sapiens (Human), UniProt Q13535)
Assay: ATR inhibition assay (radioactive-phosphate incorporation)
Type: biochemical
Details: Ki(app), 5 nM full-length ATR, 10 μM ATP, 25° C.
In short: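 Radiometric 33P incorporation by 5 nM full-length ATR into 800 μM target peptide with 10 μM [γ-33P]ATP, in 50 mM Tris/HCl pH 7.5, 10 mM MgCl2, 1 mM DTT, 7% DMSO, 25° C. Compound pre-incubated 10 minutes; reaction stopped after 24 hours, captured on phosphocellulose. Ki(app) from non-linear regression of initial rates.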

Chain of ATR kinase (full-length ATR) (Q13535 whole entry): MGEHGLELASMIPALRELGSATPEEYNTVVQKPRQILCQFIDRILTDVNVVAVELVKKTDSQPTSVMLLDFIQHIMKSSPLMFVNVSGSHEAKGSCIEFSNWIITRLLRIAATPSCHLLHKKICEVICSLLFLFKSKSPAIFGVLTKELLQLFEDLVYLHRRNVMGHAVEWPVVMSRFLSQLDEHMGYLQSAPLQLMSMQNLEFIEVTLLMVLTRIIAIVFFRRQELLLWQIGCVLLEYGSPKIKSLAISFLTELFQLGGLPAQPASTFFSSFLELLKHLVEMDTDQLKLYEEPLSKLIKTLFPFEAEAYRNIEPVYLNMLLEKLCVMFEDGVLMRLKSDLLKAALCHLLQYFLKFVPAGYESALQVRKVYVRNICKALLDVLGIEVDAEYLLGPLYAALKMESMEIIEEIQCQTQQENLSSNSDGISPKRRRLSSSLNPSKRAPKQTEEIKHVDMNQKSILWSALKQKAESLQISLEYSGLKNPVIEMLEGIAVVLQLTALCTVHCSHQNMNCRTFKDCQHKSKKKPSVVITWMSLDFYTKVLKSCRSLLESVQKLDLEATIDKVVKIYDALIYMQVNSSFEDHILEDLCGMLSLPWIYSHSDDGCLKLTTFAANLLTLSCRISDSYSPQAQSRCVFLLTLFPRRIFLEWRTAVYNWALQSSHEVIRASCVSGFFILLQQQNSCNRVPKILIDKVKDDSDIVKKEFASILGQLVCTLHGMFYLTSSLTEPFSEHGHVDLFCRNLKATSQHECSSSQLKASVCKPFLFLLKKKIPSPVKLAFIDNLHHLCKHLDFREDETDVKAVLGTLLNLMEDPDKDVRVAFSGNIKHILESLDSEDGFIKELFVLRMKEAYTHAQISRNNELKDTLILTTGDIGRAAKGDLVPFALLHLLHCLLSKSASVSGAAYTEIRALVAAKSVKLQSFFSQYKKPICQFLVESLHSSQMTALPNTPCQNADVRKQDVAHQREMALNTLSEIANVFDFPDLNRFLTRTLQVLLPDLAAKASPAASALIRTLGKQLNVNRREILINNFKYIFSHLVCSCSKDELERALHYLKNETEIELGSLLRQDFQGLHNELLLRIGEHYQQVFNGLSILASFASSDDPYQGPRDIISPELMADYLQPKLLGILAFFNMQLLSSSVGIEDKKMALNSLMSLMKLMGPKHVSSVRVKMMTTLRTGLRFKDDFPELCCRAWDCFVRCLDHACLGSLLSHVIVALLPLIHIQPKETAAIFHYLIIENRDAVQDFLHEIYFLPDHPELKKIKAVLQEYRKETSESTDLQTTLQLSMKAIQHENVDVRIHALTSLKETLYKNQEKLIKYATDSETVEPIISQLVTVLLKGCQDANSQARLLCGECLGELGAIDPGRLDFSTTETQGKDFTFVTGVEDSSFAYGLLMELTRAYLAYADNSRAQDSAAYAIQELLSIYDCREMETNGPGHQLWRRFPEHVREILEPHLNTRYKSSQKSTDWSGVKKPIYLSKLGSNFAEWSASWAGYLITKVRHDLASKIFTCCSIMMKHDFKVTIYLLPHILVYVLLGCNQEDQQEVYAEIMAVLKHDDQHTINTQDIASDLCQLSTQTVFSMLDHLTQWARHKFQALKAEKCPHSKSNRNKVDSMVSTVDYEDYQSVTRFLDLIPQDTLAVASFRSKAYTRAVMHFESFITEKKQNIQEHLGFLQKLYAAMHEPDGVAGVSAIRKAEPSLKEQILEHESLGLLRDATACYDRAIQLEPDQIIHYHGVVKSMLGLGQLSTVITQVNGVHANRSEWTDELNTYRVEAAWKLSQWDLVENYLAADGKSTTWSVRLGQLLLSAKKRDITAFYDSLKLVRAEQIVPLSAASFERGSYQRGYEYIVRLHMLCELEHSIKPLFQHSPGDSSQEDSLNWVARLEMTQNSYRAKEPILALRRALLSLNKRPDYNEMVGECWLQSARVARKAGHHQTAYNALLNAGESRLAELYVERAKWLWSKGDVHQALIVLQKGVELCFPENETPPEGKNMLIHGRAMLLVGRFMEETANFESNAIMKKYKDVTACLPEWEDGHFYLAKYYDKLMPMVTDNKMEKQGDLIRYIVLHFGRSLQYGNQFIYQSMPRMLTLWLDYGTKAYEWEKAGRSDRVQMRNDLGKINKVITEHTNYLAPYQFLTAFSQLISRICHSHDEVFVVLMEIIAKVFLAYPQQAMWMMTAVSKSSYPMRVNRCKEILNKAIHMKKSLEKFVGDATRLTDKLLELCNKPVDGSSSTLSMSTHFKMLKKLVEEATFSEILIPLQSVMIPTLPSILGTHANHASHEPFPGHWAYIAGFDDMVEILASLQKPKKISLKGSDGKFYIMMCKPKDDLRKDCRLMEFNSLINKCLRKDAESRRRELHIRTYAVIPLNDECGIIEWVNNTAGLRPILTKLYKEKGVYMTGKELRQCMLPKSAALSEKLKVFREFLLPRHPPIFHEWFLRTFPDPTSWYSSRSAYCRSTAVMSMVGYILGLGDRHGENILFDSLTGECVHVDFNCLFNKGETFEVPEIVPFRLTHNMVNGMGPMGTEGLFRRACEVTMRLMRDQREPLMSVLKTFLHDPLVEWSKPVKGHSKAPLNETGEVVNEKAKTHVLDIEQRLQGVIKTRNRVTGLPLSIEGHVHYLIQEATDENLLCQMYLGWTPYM

Row | Compound | Ki
1 | Nc1nn2cc(F)cnc2c1C(=O)Nc1cncc(F)c1N1CCC(C(=O)N2CCOCC2)CC1 [I-G-36, 2-amino-6-fluoro-N-(5-fluoro-4-(4-(morpholine-4-carbonyl)piperidin-1-yl)pyridin-3-yl)pyrazolo[1,5-a]pyrimidine-3-carboxamide] | 10 to 1000 nM
2 | Nc1nn2cc(Cl)cnc2c1C(=O)Nc1cnccc1N1CCC(N2CC[S+]([O-])CC2)CC1 [I-N-100, 2-amino-6-chloro-N-(4-(4-(1-oxidothiomorpholino)piperidin-1-yl)pyridin-3-yl)pyrazolo[1,5-a]pyrimidine-3-carboxamide] | 10 to 1000 nM
3 | COCC1CN(c2ccncc2NC(=O)c2c(N)nn3cc(Cl)cnc23)CCN1C (stereo not drawn) [I-N-47, 2-amino-6-chloro-N-(4-(3-(methoxymethyl)-4-methylpiperazin-1-yl)pyridin-3-yl)pyrazolo[1,5-a]pyrimidine-3-carboxamide] | 10 to 1000 nM
4 | N#CCc1cnc2c(C(=O)Nc3cnccc3OCC(F)(F)F)c(N)nn2c1 [I-O-34, 2-amino-6-(cyanomethyl)-N-(4-(2,2,2-trifluoroethoxy)pyridin-3-yl)pyrazolo[1,5-a]pyrimidine-3-carboxamide] | < 10 nM
5 | Nc1nn2cc(F)cnc2c1C(=O)Nc1cnccc1N1CCC(C(=O)N2CC(F)C2)CC1 [I-G-82, 2-amino-6-fluoro-N-(4-(4-(3-fluoroazetidine-1-carbonyl)piperidin-1-yl)pyridin-3-yl)pyrazolo[1,5-a]pyrimidine-3-carboxamide] | 10 to 1000 nM
6 | Nc1nn2cc(F)cnc2c1C(=O)Nc1cncc(F)c1N1CCC(C(=O)N2CCN3CCCC3C2)CC1 (stereo not drawn) [I-G-10, 2-amino-6-fluoro-N-(5-fluoro-4-(4-(octahydropyrrolo[1,2-a]pyrazine-2-carbonyl)piperidin-1-yl)pyridin-3-yl)pyrazolo[1,5-a]pyrimidine-3-carboxamide] | 10 to 1000 nM
7 | CN1CCC[C@@H]1C(=O)N1CCN(c2c(F)cncc2NC(=O)c2c(N)nn3cc(F)cnc23)CC1 [I-N-181, (R)-2-amino-6-fluoro-N-(5-fluoro-4-(4-(1-methylpyrrolidine-2-carbonyl)piperazin-1-yl)pyridin-3-yl)pyrazolo[1,5-a]pyrimidine-3-carboxamide] | 10 to 1000 nM
8 | Nc1nn2cc(F)cnc2c1C(=O)Nc1cnccc1-n1ccnc1C(F)(F)F [I-N-219, 2-amino-6-fluoro-N-(4-(2-(trifluoromethyl)-1H-imidazol-1-yl)pyridin-3-yl)pyrazolo[1,5-a]pyrimidine-3-carboxamide] | 10 to 1000 nM
9 | CN1CCN(c2cc(N)ncc2NC(=O)c2c(N)nn3cc(Cl)cnc23)CC1 [I-N-50, 2-amino-N-(6-amino-4-(4-methylpiperazin-1-yl)pyridin-3-yl)-6-chloropyrazolo[1,5-a]pyrimidine-3-carboxamide] | 10 to 1000 nM
10 | CN1CCC(Oc2ccncc2NC(=O)c2c(N)nn3cc(Cl)cnc23)CC1 [I-O-64, 2-amino-6-chloro-N-(4-((1-methylpiperidin-4-yl)oxy)pyridin-3-yl)pyrazolo[1,5-a]pyrimidine-3-carboxamide] | 10 to 1000 nM
11 | CN(C)CCN1CCN(c2ccncc2NC(=O)c2c(N)nn3cc(Cl)cnc23)CC1 [I-N-49, 2-amino-6-chloro-N-(4-(4-(2-(dimethylamino)ethyl)piperazin-1-yl)pyridin-3-yl)pyrazolo[1,5-a]pyrimidine-3-carboxamide] | 10 to 1000 nM
12 | CN1CC2(CCN(c3ccncc3NC(=O)c3c(N)nn4cc(F)cnc34)CC2)CC1=O [I-N-236, 2-amino-6-fluoro-N-(4-(2-methyl-3-oxo-2,8-diazaspiro[4.5]decan-8-yl)pyridin-3-yl)pyrazolo[1,5-a]pyrimidine-3-carboxamide] | 10 to 1000 nM
13 | COC1CCN(C2CCN(c3ccncc3NC(=O)c3c(N)nn4cc(Cl)cnc34)CC2)C1 (stereo not drawn) [I-N-95, 2-amino-6-chloro-N-(4-(4-(3-methoxypyrrolidin-1-yl)piperidin-1-yl)pyridin-3-yl)pyrazolo[1,5-a]pyrimidine-3-carboxamide] | 10 to 1000 nM
14 | Nc1nn2cc(F)cnc2c1C(=O)Nc1cnccc1N1CCC2(CC1)COC2 [I-N-226, N-(4-(2-oxa-7-azaspiro[3.5]nonan-7-yl)pyridin-3-yl)-2-amino-6-fluoropyrazolo[1,5-a]pyrimidine-3-carboxamide] | 10 to 1000 nM
15 | Cc1nccn1-c1ccncc1NC(=O)c1c(N)nn2cc(F)cnc12 [I-N-28, 2-amino-6-fluoro-N-(4-(2-methyl-1H-imidazol-1-yl)pyridin-3-yl)pyrazolo[1,5-a]pyrimidine-3-carboxamide] | 10 to 1000 nM
16 | Nc1nn2cc(F)cnc2c1C(=O)Nc1cncc(F)c1N1CCC(N2CCOCC2)CC1 [I-N-189, 2-amino-6-fluoro-N-(5-fluoro-4-(4-morpholinopiperidin-1-yl)pyridin-3-yl)pyrazolo[1,5-a]pyrimidine-3-carboxamide] | 10 to 1000 nM
17 | Cc1nnc(C2CCN(c3ccncc3NC(=O)c3c(N)nn4cc(F)cnc34)CC2)o1 [I-N-265, 2-amino-6-fluoro-N-(4-(4-(5-methyl-1,3,4-oxadiazol-2-yl)piperidin-1-yl)pyridin-3-yl)pyrazolo[1,5-a]pyrimidine-3-carboxamide] | 10 to 1000 nM
18 | Nc1nn2cc(Cl)cnc2c1C(=O)Nc1cnccc1N1CCC(N2CC[C@H](F)C2)CC1 [I-N-103, (S)-2-amino-6-chloro-N-(4-(4-(3-fluoropyrrolidin-1-yl)piperidin-1-yl)pyridin-3-yl)pyrazolo[1,5-a]pyrimidine-3-carboxamide] | 10 to 1000 nM
19 | Nc1nn2cc(F)cnc2c1C(=O)Nc1cnccc1N1CCN2C(=O)CC[C@H]2C1 [I-N-217, (S)-2-amino-6-fluoro-N-(4-(6-oxohexahydropyrrolo[1,2-a]pyrazin-2(1H)-yl)pyridin-3-yl)pyrazolo[1,5-a]pyrimidine-3-carboxamide] | 10 to 1000 nM
20 | Nc1nn2cc(F)cnc2c1C(=O)Nc1cncc(F)c1N1CCN(C(=O)C23CCN(CC2)CC3)CC1 [I-N-134, 2-amino-6-fluoro-N-(5-fluoro-4-(4-(quinuclidine-4-carbonyl)piperazin-1-yl)pyridin-3-yl)pyrazolo[1,5-a]pyrimidine-3-carboxamide] | 10 to 1000 nM
21 | Nc1nn2cc(F)cnc2c1C(=O)Nc1cncc(F)c1N1CCC(C(=O)N2CCN(C3CC3)CC2)CC1 [I-G-13, 2-amino-N-(4-(4-(4-cyclopropylpiperazine-1-carbonyl)piperidin-1-yl)-5-fluoropyridin-3-yl)-6-fluoropyrazolo[1,5-a]pyrimidine-3-carboxamide] | 10 to 1000 nM

The next lines start with the values.

Row | Ki | Compound
22 | 10 to 1000 nM | Nc1nn2cc(F)cnc2c1C(=O)Nc1cncc(C2CC2)c1N1CCN([C@H]2CCOC2)CC1 [I-N-120, (S)-2-amino-N-(5-cyclopropyl-4-(4-(tetrahydrofuran-3-yl)piperazin-1-yl)pyridin-3-yl)-6-fluoropyrazolo[1,5-a]pyrimidine-3-carboxamide]
23 | 10 to 1000 nM | Cc1cncc(NC(=O)c2c(N)nn3cc(Cl)cnc23)c1N1CCN(C)CC1 [I-N-57, 2-amino-6-chloro-N-(5-methyl-4-(4-methylpiperazin-1-yl)pyridin-3-yl)pyrazolo[1,5-a]pyrimidine-3-carboxamide]
24 | 10 to 1000 nM | Nc1nn2cc(Cl)cnc2c1C(=O)Nc1cncc(F)c1N1CCC(C(=O)N2CCN3CCC2CC3)CC1 [I-G-87, N-(4-(4-(1,4-diazabicyclo[3.2.2]nonane-4-carbonyl)piperidin-1-yl)-5-fluoropyridin-3-yl)-2-amino-6-chloropyrazolo[1,5-a]pyrimidine-3-carboxamide]
25 | 10 to 1000 nM | Nc1nn2cc(Cl)cnc2c1C(=O)Nc1cnccc1N1CCC(N)CC1 [I-N-86, 2-amino-N-(4-(4-aminopiperidin-1-yl)pyridin-3-yl)-6-chloropyrazolo[1,5-a]pyrimidine-3-carboxamide]
26 | 10 to 1000 nM | N#C[C@@H]1CCN(c2c(Cl)cncc2NC(=O)c2c(N)nn3cc(F)cnc23)C1 [I-N-285, (R)-2-amino-N-(5-chloro-4-(3-cyanopyrrolidin-1-yl)pyridin-3-yl)-6-fluoropyrazolo[1,5-a]pyrimidine-3-carboxamide]
27 | 10 to 1000 nM | C[C@@H]1CN(C(=O)C2CCN(c3c(F)cncc3NC(=O)c3c(N)nn4cc(F)cnc34)CC2)CCN1 [I-G-45, (R)-2-amino-6-fluoro-N-(5-fluoro-4-(4-(3-methylpiperazine-1-carbonyl)piperidin-1-yl)pyridin-3-yl)pyrazolo[1,5-a]pyrimidine-3-carboxamide]
28 | 10 to 1000 nM | CCN1CCN(c2ccncc2NC(=O)c2c(N)nn3cc(F)cnc23)CC1 [I-N-17, 2-amino-N-(4-(4-ethylpiperazin-1-yl)pyridin-3-yl)-6-fluoropyrazolo[1,5-a]pyrimidine-3-carboxamide]
29 | 10 to 1000 nM | COC(=O)C1CCN(c2ccncc2NC(=O)c2c(N)nn3cc(Cl)cnc23)CC1 [I-N-74, methyl-1-(3-(2-amino-6-chloropyrazolo[1,5-a]pyrimidine-3-carboxamido)pyridin-4-yl)piperidine-4-carboxylate]
30 | < 10 nM | N#CCc1cnc2c(C(=O)Nc3cnccc3OC3CCOC3)c(N)nn2c1 (racemic) [I-O-37, (R,S)-2-amino-6-(cyanomethyl)-N-(4-((tetrahydrofuran-3-yl)oxy)pyridin-3-yl)pyrazolo[1,5-a]pyrimidine-3-carboxamide]
31 | 10 to 1000 nM | CN1CCc2c(cncc2NC(=O)c2c(N)nn3cc(F)cnc23)C1 [I-C-8, 2-amino-6-fluoro-N-(7-methyl-5,6,7,8-tetrahydro-2,7-naphthyridin-4-yl)pyrazolo[1,5-a]pyrimidine-3-carboxamide]
32 | 10 to 1000 nM | CN1CCC(NC(=O)C2CCN(c3c(F)cncc3NC(=O)c3c(N)nn4cc(F)cnc34)CC2)CC1 [I-G-20, 2-amino-6-fluoro-N-(5-fluoro-4-(4-((1-methylpiperidin-4-yl)carbamoyl)piperidin-1-yl)pyridin-3-yl)pyrazolo[1,5-a]pyrimidine-3-carboxamide]
33 | 10 to 1000 nM | CN1CCOC2(CCN(c3c(F)cncc3NC(=O)c3c(N)nn4cc(F)cnc34)CC2)C1 [I-N-272, 2-amino-6-fluoro-N-(5-fluoro-4-(4-methyl-1-oxa-4,9-diazaspiro[5.5]undecan-9-yl)pyridin-3-yl)pyrazolo[1,5-a]pyrimidine-3-carboxamide]

— patent publication US10392391B2 (Vertex Pharmaceuticals Incorporated, priority 2012, dated 2019)
